For orientation: IC50 means the midpoint of a concentration-inhibition curve. For orientation: EC50 means the concentration that produces a half-maximal response.

Several values for one entry are separate records, joined by “and”; a condition that tells them apart may be missing. Equal entries are not always repeated. Where two headings read alike, the source gives them in different places.

The text below walks through data of PMC9426601 (mBio, 2022).

Experiment [1] has as its system A(H3N2)-WT. In words: yield reduction assay (YRA) in MDCK-SIAT cells. Conditions: A(H3N2) 100% WT, mean ± SD. In kind it is cell-based, influenza A(H3N2) virus. The method, then: (§1) To perform the yield reduction assay, MDCK-SIAT cells were seeded into a 96-well plate as described above. Cell monolayers were washed with PBS and infected with 100 virus particles (calculated based on virus titer determined by TCID50) for 90 min. […] The plates were incubated for 24 h at 35°C, and the supernatant was collected and quantified to determine the infectious viral titer by using a TCID50 assay.

The target in experiment [2] is NA activity of A(H3N2)-WT (Influenza A virus, UniProt P06818). It is filed as biochemical.
Experiment [3] deals with A(H3N2) 100% WT. Set-up: species or system ferrets (Mustela putorius furo). Conditions: in vivo.
The subject of experiment [4] is A(H1N1pdm09) 100% WT. More on the design: species or system ferrets (Mustela putorius furo); AUC (area under the curve of nasal wash viral titer): unit not given beside the values. The note with it: in vivo.
Experiment [5] deals with A(H1N1pdm09)-WT. In words: yield reduction assay (YRA) in MDCK-SIAT cells. Conditions: A(H1N1pdm09) 100% WT, mean ± SD. In kind it is cell-based, influenza A(H1N1pdm09) virus. The method, then: as §1
For experiment [6], the system named is A(H3N2)-WT. Nature of the experiment: microbe, parasite or virus in culture. It is filed as cell-based. Conditions: Influenza A virus, H3N2, read-out: Baloxavir EC50 (nM) FRA.
In experiment [7] the test system is A(H1N1pdm09)-WT. Nature of the experiment: microbe, parasite or virus in culture. It is filed as cell-based, influenza A(H1N1pdm09) virus. Conditions: Influenza A virus, read-out: Baloxavir EC50 (nM) FRA.
Experiment [8] addresses NA activity of A(H1N1pdm09)-WT (Influenza A virus, UniProt C7FH46). It is filed as biochemical. Conditions: read-out: IC50 (nM), neuraminidase inhibitor.
Setting [9] is: read-out: Oseltamivir IC50 (nM) YRA.
Setting [10] is: Influenza A virus, read-out: Baloxavir EC50 (nM) YRA.

As to `CCOC(=O)C1=C[C@@H](OC(CC)CC)[C@H](NC(C)=O)[C@@H](N)C1` [Oseltamivir, oseltamivir], the figures for the IC50 in experiment [1] (setting [9]), in experiment [2] (read-out: Oseltamivir IC50 (nM) NIA) and in experiment [5] (setting [9]) were […], […] and […], respectively. Also, the “Duration of viral shedding” value in experiment [3] is […]; in experiment [4], […]. Moreover, the “AUC (area under the curve of nasal wash viral titer)” value in experiment [4] came to […]. Further, the “reduction in mean viral titer 1 day following antiviral treatment” value in experiment [4] was “no reduction”.

`O=C1c2c(O)c(=O)ccn2N([C@@H]2c3ccccc3SCc3c2ccc(F)c3F)[C@@H]2COCCN12` [Baloxavir, baloxavir acid]: the EC50 is 0.4 ± 0.1 nM in experiment [1] (setting [10]), 0.6 ± 0.2 nM in experiment [6], 1.2 ± 0.2 nM in experiment [7] and 0.3 ± 0.02 nM in experiment [5] (setting [10]). Besides, the “Duration of viral shedding” value was 4.3 days and 4.3 ± 0.9 days in experiment [3]; 4 ± 0.8 days in experiment [4]. The “duration of viral shedding shorter than placebo” value in experiment [3] is reported as 1.7 days. The “reduction in AUC relative to placebo” value in experiment [3] was determined as 28%; in experiment [4], 29%. The “reduction in mean viral titer 1 day following antiviral treatment” value in experiment [4] was 1,000 fold. Besides, the “reduction of duration of viral shedding vs placebo” value in experiment [4] was determined as 2.3 days.

As for `CCC(CC)[C@H](NC(C)=O)[C@@H]1[C@H](O)[C@@H](C(=O)O)C[C@H]1N=C(N)N` [Peramivir], the 50% inhibitory concentration (IC50) in experiment [2] (read-out: IC50 (nM), neuraminidase inhibitor) was determined as 0.19 ± 0.01 nM; in experiment [8], 0.15 ± 0.03 nM.
